Reference: patent US20180346731A1, “Formation of Stable Pyranoanthocyanins, and Uses Thereof as Sources of Natural Color” (Ohio State Innovation Foundation, priority 2017, published 2018)
“And” between values parts separate entries of the source, which are not always exact repeats. Identical values can stand only once.

Tests used:
[1] = UV-Vis absorbance loss and first-order bleaching kinetics of pigment solutions with ascorbic acid (pH 3.0 citrate buffer, 25° C., dark); assay type: physicochemical; conditions: for K (reaction rate, first-order) / t1/2: 25° C. dark
Procedure: The semi-purified chokeberry extract, the isolated cyanidin-3-galactoside, and the purified 5-carboxypyranocyanidin-3-galactoside were diluted in pH 3.0 citrate buffer (0.1 M adjusted with HCl) until an absorbance of 1.0 at their respective λmax was reached. Levels of AA of 250, 500, and 1000 mg/L were added using a concentrated ascorbic acid stock solution, and a control consisting of each pigment with the absence of AA was maintained. The control consisted of the pigment in the buffer in the absence of AA. An additional test was performed with the same model juice using hydrogen peroxide, a known degradation product of AA. To determine if AA bleaching was due to formation of H2O2, direct addition of it was investigated. In place of added AA, a 62.2 μL of a 0.3% peroxide solution was added to match the molar equivalency of the 500 mg/L AA level, which was 2.84 mM. All samples were brought to the same final volume with additional citrate buffer. […] Samples were stored in the dark at 25° C. in an incubator. UV-Vis spectrophotometry, colorimetry, and HPLC analyses were conducted over a 5 day period following the addition of ascorbic acid or hydrogen peroxide. UV-Vis spectral data was collected every hour for the first 8 hours, and then at 12 hr, and daily from that point on for 5 days. […] HPLC analyses were conducted on days 0, 1, 3, and 5. All treatments were run in triplicate. A SpectraMax 190 Microplate Reader (Molecular Devices, Sunnyvale, Calif., U.S.) with a 96-well plate (poly-D-lysine coated polystyrene) were used for the evaluation of absorbance from 380-700 nm, 1 nm intervals. Aliquots (200 uL) of samples were loaded into individual wells, and a blank consisted of the same citrate buffer used. Because of the rapid nature of AA-induced color loss, degradation kinetics were evaluated in terms of change in maximum absorbance at the original λmax over time. Bleaching is a first-order reaction, typical of ACN degradation, and was modeled as such in determining the reaction rate and half-life. The decrease in maximum absorbance correlated with an increase in lightness (L*) as well as the decrease in chroma (c*). The reduction in maximum absorbance did closely follow first-order kinetics for chokeberry extract and cyanidin-3-galactoside but slightly deviated for 5-carboxypyranocyanidin-3-galactoside. […] The kinetics results for each pigment and AA level can be found in Table 3 below.

[2] = Colorimetry (CIEL*c*h*, ΔE) of pigment solutions with ascorbic acid; assay type: physicochemical
Procedure: (§1) The semi-purified chokeberry extract, the isolated cyanidin-3-galactoside, and the purified 5-carboxypyranocyanidin-3-galactoside were diluted in pH 3.0 citrate buffer (0.1 M adjusted with HCl) until an absorbance of 1.0 at their respective λmax was reached. Levels of AA of 250, 500, and 1000 mg/L were added using a concentrated ascorbic acid stock solution, and a control consisting of each pigment with the absence of AA was maintained. The control consisted of the pigment in the buffer in the absence of AA. An additional test was performed with the same model juice using hydrogen peroxide, a known degradation product of AA. To determine if AA bleaching was due to formation of H2O2, direct addition of it was investigated. In place of added AA, a 62.2 μL of a 0.3% peroxide solution was added to match the molar equivalency of the 500 mg/L AA level, which was 2.84 mM.
(§2) All samples were brought to the same final volume with additional citrate buffer. […] Samples were stored in the dark at 25° C. in an incubator. UV-Vis spectrophotometry, colorimetry, and HPLC analyses were conducted over a 5 day period following the addition of ascorbic acid or hydrogen peroxide. UV-Vis spectral data was collected every hour for the first 8 hours, and then at 12 hr, and daily from that point on for 5 days. […] HPLC analyses were conducted on days 0, 1, 3, and 5. All treatments were run in triplicate.
Using UV-Vis spectral data (5 nm steps, 380-700 nm) in combination with software written for color conversion, absorbance data was translated to CIE-L*c*h*. The calculations for CIE-L*c*h* implemented by the software used CIE relative spectral power distribution for a D65 standard illuminants and 10° observer angle function. Color data is reported as L* (lightness), c* (chroma), and h* (hue angle).
Total color changes (ΔE) were calculated as the color change from day 0 to 5 for each respective treatment, and presented in Table 4.
Numbers are means of 3 replications, followed by (standard deviations). ΔE: total color change from day 0 (control) to day 5.

[3] = Direct hydrogen peroxide addition to pigment solutions (HPLC, absorbance); assay type: physicochemical
Procedure: as §1
All samples were brought to the same final volume with additional citrate buffer. […] Samples were stored in the dark at 25° C. in an incubator. UV-Vis spectrophotometry, colorimetry, and HPLC analyses were conducted over a 5 day period following the addition of ascorbic acid or hydrogen peroxide. […]
Auto-oxidation of AA in solution can give rise to H2O2 formation, a powerful bleaching agent that can further lead to rapid ACN degradation. […] HPLC profiles as well as maximum absorbance and λmax of the solutions were evaluated.

[4] = HPLC monitoring of pigment peaks with ascorbic acid; assay type: physicochemical
Procedure: Prior to experimentation, pigments were evaluated for purity by using an analytical HPLC only different from the previously listed one by the use of different pumps (LC-20AD, Shimadzu, Md., US). Purified pigments were filtered using the Phenex RC 0.45 μm membranes. A binary system with 1 mL/min flow rate was used: solvent A: 4.5% formic acid in HPLC grade water and solvent B: HPLC grade acetonitrile. The gradient began with an isocratic flow of 6% solvent B for 17 minutes (elution of primary anthocyanins), increasing to 15% solvent B by 45 minutes (elution of primary pyranoanthocyanins), and to 40% solvent B by 50 minutes. A 10 μL injection volume was loaded onto a Phenomenex Kinetix 5 μm EVO C18 100 A. 150×4.6 mm column and Phenomenex Ultra UHPLC EVO C18 guard cartridge attached.
as §1, §2
Prepared solutions were monitored to determine the formation of potential degradation products or profile changes. Using the analytical HPLC system and conditions described, chromatograms were monitored with the max plot (260-700 nm), 490 nm (near λmax of 5-carboxypyranocyanidin-3-galactoside), and 520 nm (near ma of cyanidin-3-galactoside). A max plot of 470-520 nm was later added to standardize changes in the AUC for all three pigments and their degradation products.

[5] = reported in literature; cited from earlier work

O=C(O)C1=Cc2c(O[C@@H]3O[C@H](CO)[C@H](O)[C@H](O)[C@H]3O)c(-c3ccc(O)c(O)c3)[o+]c3cc(O)cc(c23)O1 [5-carboxypyranocyanidin-3-galactoside]
K (reaction rate, first-order) ([1]; 250 mg/L AA): 2.69E−03
t1/2 ([1]; 250 mg/L AA): 258 h
reduction in maximum absorbance ([1]; 500 mg/L AA, 5 day period): 38%
λmax after hypsochromic change ([1]; 500 mg/L AA, after treatment): 484 nm
λmax before hypsochromic change ([1]; 500 mg/L AA, start): 491 nm
K (reaction rate, first-order) ([1]; 500 mg/L AA): 4.61E−03
t1/2 ([1]; 500 mg/L AA): 150 h
K (reaction rate, first-order) ([1]; 1000 mg/L AA): 1.08E−02
t1/2 ([1]; 1000 mg/L AA): 64 h
K (reaction rate, first-order) ([1]; Control, no AA, absorbance at λvis-max): 7.08E−04
time before a significant difference (p<0.05) in maximum absorbance from time 0 ([1]; all levels of AA added): 24 h
hypsochromic shift of λmax ([1]; over the 5 days of AA treatment, regardless of AA level): ≤ 10 nm
Chroma Day 0 ([2]; 250 mg/L AA): 55.2 (0.4)
Chroma Day 5 ([2]; 250 mg/L AA): 43.2 (0.2)
Hue Angle Day 0 ([2]; 250 mg/L AA): 50.7 (0.2) °
Hue Angle Day 5 ([2]; 250 mg/L AA): 46.9 (.3) °
Lightness Day 0 ([2]; 250 mg/L AA): 81.9 (0.1)
Lightness Day 5 ([2]; 250 mg/L AA): 82.8 (0.3)
ΔE Over 5 days ([2]; 250 mg/L AA): 4.5 (0.2)
Chroma Day 0 ([2]; 500 mg/L AA): 54.7 (0.3)
Chroma Day 5 ([2]; 500 mg/L AA): 39.2 (0.3)
Hue Angle Day 0 ([2]; 500 mg/L AA): 50.4 (0.1) °
Hue Angle Day 5 ([2]; 500 mg/L AA): 48.3 (0.4) °
Lightness Day 0 ([2]; 500 mg/L AA): 82.1(0.3)
Lightness Day 5 ([2]; 500 mg/L AA): 83.6 (0.4)
ΔE Over 5 days ([2]; 500 mg/L AA): 5.0 (0.2)
Chroma Day 5 ([2]; 1000 mg/L AA): 36.2 (0.3)
Hue Angle Day 0 ([2]; 1000 mg/L AA): 51.0 ° and 51.0 (0.1) °
Hue Angle Day 5 ([2]; 1000 mg/L AA): 57.1 ° and 57.1 (0.7) °
Lightness Day 5 ([2]; 1000 mg/L AA): 83.7 (0.2)
ΔE Over 5 days ([2]; 1000 mg/L AA): 5.2 (0.5)
L* after 48 hours ([2]; 1000 mg/L AA, 48 hours): 86.6
ΔE Over 5 days ([2]; 1000 mg/L AA, listed as 5-Carboxypyranocyanidin-3-galactoside): 5.2
Chroma Day 0 ([2]; Control, no AA): 54.3 (0.7)
Chroma Day 5 ([2]; Control, no AA): 49.9 (1.3)
Hue Angle Day 0 ([2]; Control, no AA): 50.0 (0.2) °
Hue Angle Day 5 ([2]; Control, no AA): 47.5 (0.6) °
Lightness Day 5 ([2]; Control, no AA): 82.2 (0.6)
ΔE Over 5 days ([2]; Control, no AA): 2.1 (0.4)
Lightness Day 0 ([2]; Control, no AA, mean (SD), n=3): 82.2 (0.2)
time until significant change in chroma as compared to the control ([2]; all levels of AA): 48 h
initial hue angle ([2]; day 0): 50 °
resistance to bleaching with H2O2 [3]: more resistant to bleaching compared to anthocyanins
target peaks left after 1 day ([4]; 1000 mg/L AA, HPLC): 10%
reduction of pigment peak by day 1 ([4]; 1 g/L AA, HPLC AUC): 93%
reduction of pigment peak by day 5 ([4]; 1 g/L AA, HPLC AUC): 99%

OC[C@H]1O[C@@H](Oc2cc3c(O[C@@H]4O[C@H](CO)[C@@H](O)[C@H](O)[C@H]4O)cc(O)cc3[o+]c2-c2ccc(O)c(O)c2)[C@H](O)[C@@H](O)[C@@H]1O [Cy-3-glu-5-glu]
pKh [5]: 2.23
